The text below walks through data of ChEMBL document CHEMBL1201862, “PubChem BioAssay data set” (2004).

Some test systems named below: K562; UACC-257; U-251; NCI/ADR-RES; RPMI-8226; A498; SR; SNB-75; UO-31; COLO 205; 786-0; MCF7; ACHN; HOP-62; MDA-MB-435; SW-620; TK-10; OVCAR-3; SK-MEL-2.
Experiment in all cases: growth of human tumour cells (NCI), 48 h

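How tested: cells in 96-well plates exposed to compound for 48 hours at five concentrations. GI50 is the concentration that inhibits growth by half.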 Calls of active or inactive are those of the source. Rule as the data show it: active = GI50 up to about 1.1 µM and inactive = higher.

For the molecule `CC(C)=CCC12Cc3ccc(O)cc3C(C(C)CN1)C2C` (stereo not drawn), the GI50 in the experiment on K562 is 34.4 µM (inactive); in the experiment on UACC-257, 27.3 µM (inactive); with U-251 it was 83.4 µM (inactive); with NCI/ADR-RES, > 100 µM (inactive); in the experiment with RPMI-8226, 37.2 µM (inactive); in the experiment on A498 it was 50.9 µM (inactive). In addition, the GI50 in the experiment on SR was 39.2 µM (inactive); in the experiment on SNB-75, 99.5 µM (inactive); in the experiment with UO-31 it was 27 µM (inactive); in the experiment with COLO 205, 36.9 µM (inactive); in the experiment on 786-0 it was > 100 µM (inactive); with MCF7, 81.3 µM (inactive). The GI50 in the experiment on ACHN is > 100 µM (inactive); with HOP-62, > 100 µM (inactive); in the experiment on MDA-MB-435, 44.9 µM (inactive); in the experiment with SW-620, > 100 µM (inactive); with TK-10 it was > 100 µM (inactive).
Consider `S=C(Nc1cccc(Cl)c1)Nc1ccccn1`, for which the GI50 in the experiment on OVCAR-3, in the experiment on K562, in the experiment with UACC-257, in the experiment with U-251, in the experiment with NCI/ADR-RES and in the experiment on RPMI-8226 was > 100 µM (inactive) throughout. Further, the GI50 in the experiment on SK-MEL-2 was > 100 µM (inactive); with SR, > 100 µM (inactive); in the experiment with SNB-75, 1.14 µM (inactive); in the experiment with UO-31 it was > 100 µM (inactive); in the experiment with COLO 205, > 100 µM (inactive); in the experiment with 786-0, > 100 µM (inactive). For the same molecule, the GI50 in the experiment on MCF7, in the experiment with HOP-62, with MDA-MB-435, with SW-620 and in the experiment with TK-10 was > 100 µM (inactive) throughout.
Regarding `CC(C)C1=Cc2ccc3c(c2C(=O)C1=O)CCCC3(C)C` [MILTIRONE], the GI50 in the experiment with OVCAR-3 is 2.58 µM (inactive); with K562, 2.67 µM (inactive); with UACC-257, 3.08 µM (inactive); in the experiment on U-251 it was 14.2 µM (inactive); in the experiment on RPMI-8226, 2.12 µM (inactive); in the experiment on A498 it was 17.4 µM (inactive). For the same molecule, the GI50 in the experiment on SK-MEL-2 is 17 µM (inactive); in the experiment with SR, 2.36 µM (inactive); in the experiment on SNB-75, 15.3 µM (inactive); in the experiment on UO-31, 6.64 µM (inactive); in the experiment on COLO 205 it was 4.19 µM (inactive); in the experiment on 786-0, 5.65 µM (inactive). Also, the GI50 was 5.82 µM (inactive) in the experiment on ACHN, 19.6 µM (inactive) in the experiment on HOP-62, 3.15 µM (inactive) with SW-620 and 3.14 µM (inactive) in the experiment on TK-10.
As for `CC1[C@@]2(CCC(C)(C)O2)O[C@@H]2C=C3C4CCC5Cc6nc7c(nc6C[C@@]5(C)C4C[C@H](O)[C@@]3(C)[C@]12O)CC1CCC2C3=C[C@H]4O[C@@]5(O[C@@](C)(CO)C[C@@H]5O)C(C)[C@@]4(O)[C@]3(C)[C@@H](O)CC2[C@]1(C)C7` (stereo partly drawn), the GI50 in the experiment on OVCAR-3 was 0.736 µM (active); in the experiment on K562 it was 0.055 µM (active); in the experiment with UACC-257, 0.138 µM (active); in the experiment on U-251 it was 0.0266 µM (active); in the experiment on NCI/ADR-RES, 0.619 µM (active); in the experiment with RPMI-8226, 0.00653 µM (active). Besides, the GI50 in the experiment with A498 was 0.0313 µM (active); with SK-MEL-2, 0.0783 µM (active); with SR, 0.0264 µM (active); in the experiment with SNB-75 it was 0.00762 µM (active); in the experiment on UO-31, 0.047 µM (active); in the experiment on COLO 205 it was 0.163 µM (active). Besides, the GI50 in the experiment on 786-0 was 0.0168 µM (active); in the experiment on MCF7, 0.00959 µM (active); in the experiment on ACHN it was 0.103 µM (active); in the experiment on HOP-62 it was 0.0272 µM (active); with SW-620 it was 0.064 µM (active); in the experiment on TK-10, 0.681 µM (active).
